Test results: PubChem BioAssay AID1259407 (Chemical Carcinogenesis Research Information System (CCRIS), 2018)
Activity calls are given as the source filed them. The rule behind the calls is not given here.

Tested on: CCRIS mutagenicity, Ames/micronucleus/aberration tests
Test: CCRIS mutagenicity studies
From the text: The CCRIS database contains chemical records with carcinogenicity, mutagenicity, tumor promotion, and tumor inhibition test results. It was developed by the National Cancer Institute (NCI). Data are derived from studies cited in primary journals, current awareness tools, NCI reports, and other sources. Test results have been reviewed by experts in carcinogenesis and mutagenesis.
CCRIS provides historical information from the years 1985 - 2011. It is no longer updated.
This is an archive assay for CCRIS mutagenicity studies.

[1] = Test System: AMES SALMONELLA TYPHIMURIUM, Strain/Indicator: TA97, Metabolic Activation: NONE, Method: PREINCUBATION
[2] = Test System: AMES SALMONELLA TYPHIMURIUM, Strain/Indicator: TA100, Metabolic Activation: NONE, Method: PREINCUBATION
[3] = Test System: AMES SALMONELLA TYPHIMURIUM, Strain/Indicator: TA100, Metabolic Activation: NONE, Method: STANDARD PLATE
[4] = Test System: AMES SALMONELLA TYPHIMURIUM, Strain/Indicator: TA1537, Metabolic Activation: NONE, Method: STANDARD PLATE
[5] = Test System: AMES SALMONELLA TYPHIMURIUM, Strain/Indicator: TA1538, Metabolic Activation: NONE, Method: STANDARD PLATE

For `Oc1c(Cl)c(Cl)cc(Cl)c1Cl`, the mutagenic call (End Point: IN VITRO CHROMOSOMAL ABERRATIONS, Test System: CHINESE HAMSTER LUNG CELLS (CHL), Metabolic Activation: NONE) was “inactive; negative”, the mutagenic call (End Point: IN VITRO CHROMOSOMAL ABERRATIONS, Test System: CHINESE HAMSTER LUNG CELLS (CHL), Metabolic Activation: RAT, LIVER, S-9, KC-400) was “active; positive (structural changes)” and the mutagenic call (End Point: IN VITRO CHROMOSOMAL ABERRATIONS, Test System: CHINESE HAMSTER OVARY CELLS (CHO), Metabolic Activation: NONE) was “inactive; negative”. The mutagenic call (End Point: IN VITRO CHROMOSOMAL ABERRATIONS, Test System: CHINESE HAMSTER OVARY CELLS (CHO), Metabolic Activation: RAT, LIVER, S-9, AROCLOR 1254) was “active; positive (structural changes)”, the mutagenic call (Test System: AMES SALMONELLA TYPHIMURIUM, Strain/Indicator: TA97, Metabolic Activation: HAMSTER, LIVER, S-9, AROCLOR 1254 (10%), Method: PREINCUBATION) was “inactive; negative” and the mutagenic call (Test System: AMES SALMONELLA TYPHIMURIUM, Strain/Indicator: TA97, Metabolic Activation: HAMSTER, LIVER, S-9, AROCLOR 1254 (30%), Method: PREINCUBATION) was “inactive; negative”. The mutagenic call [1] was “inactive; negative”, the mutagenic call (Test System: AMES SALMONELLA TYPHIMURIUM, Strain/Indicator: TA97, Metabolic Activation: RAT, LIVER, S-9, AROCLOR 1254 (10%), Method: PREINCUBATION) was “inactive; negative” and the mutagenic call (Test System: AMES SALMONELLA TYPHIMURIUM, Strain/Indicator: TA97, Metabolic Activation: RAT, LIVER, S-9, AROCLOR 1254 (30%), Method: PREINCUBATION) was “inactive; negative”. For the same compound, the mutagenic call (Test System: AMES SALMONELLA TYPHIMURIUM, Strain/Indicator: TA98, Metabolic Activation: HAMSTER, LIVER, S-9, AROCLOR 1254 (10%), Method: PREINCUBATION) was “inactive; negative”, the mutagenic call (Test System: AMES SALMONELLA TYPHIMURIUM, Strain/Indicator: TA98, Metabolic Activation: HAMSTER, LIVER, S-9, AROCLOR 1254 (30%), Method: PREINCUBATION) was “inactive; negative” and the mutagenic call (Test System: AMES SALMONELLA TYPHIMURIUM, Strain/Indicator: TA98, Metabolic Activation: NONE, Method: PREINCUBATION) was “inactive; negative”. The mutagenic call (Test System: AMES SALMONELLA TYPHIMURIUM, Strain/Indicator: TA98, Metabolic Activation: RAT, LIVER, S-9, AROCLOR 1254 (10%), Method: PREINCUBATION) was “inactive; negative”, the mutagenic call (Test System: AMES SALMONELLA TYPHIMURIUM, Strain/Indicator: TA98, Metabolic Activation: RAT, LIVER, S-9, AROCLOR 1254 (30%), Method: PREINCUBATION) was “inactive; negative” and the mutagenic call (Test System: AMES SALMONELLA TYPHIMURIUM, Strain/Indicator: TA100, Metabolic Activation: HAMSTER, LIVER, S-9, AROCLOR 1254 (10%), Method: PREINCUBATION) was “inactive; negative”. For the same compound, the mutagenic call (Test System: AMES SALMONELLA TYPHIMURIUM, Strain/Indicator: TA100, Metabolic Activation: HAMSTER, LIVER, S-9, AROCLOR 1254 (30%), Method: PREINCUBATION) was “inactive; negative”, the mutagenic call [2] was “inactive; negative” and the mutagenic call (Test System: AMES SALMONELLA TYPHIMURIUM, Strain/Indicator: TA100, Metabolic Activation: RAT, LIVER, S-9, AROCLOR 1254 (10%), Method: PREINCUBATION) was “inactive; negative”. The mutagenic call (Test System: AMES SALMONELLA TYPHIMURIUM, Strain/Indicator: TA100, Metabolic Activation: RAT, LIVER, S-9, AROCLOR 1254 (30%), Method: PREINCUBATION) was “inactive; negative”, the mutagenic call (Test System: AMES SALMONELLA TYPHIMURIUM, Strain/Indicator: TA1535, Metabolic Activation: HAMSTER, LIVER, S-9, AROCLOR 1254 (10%), Method: PREINCUBATION) was “inactive; negative” and the mutagenic call (Test System: AMES SALMONELLA TYPHIMURIUM, Strain/Indicator: TA1535, Metabolic Activation: HAMSTER, LIVER, S-9, AROCLOR 1254 (30%), Method: PREINCUBATION) was “inactive; negative”. For the same compound, the mutagenic call (Test System: AMES SALMONELLA TYPHIMURIUM, Strain/Indicator: TA1535, Metabolic Activation: NONE, Method: PREINCUBATION) was “inactive; negative”, the mutagenic call (Test System: AMES SALMONELLA TYPHIMURIUM, Strain/Indicator: TA1535, Metabolic Activation: RAT, LIVER, S-9, AROCLOR 1254 (10%), Method: PREINCUBATION) was “inactive; negative” and the mutagenic call (Test System: AMES SALMONELLA TYPHIMURIUM, Strain/Indicator: TA1535, Metabolic Activation: RAT, LIVER, S-9, AROCLOR 1254 (30%), Method: PREINCUBATION) was “inactive; negative”.
`CCCCCCCCCCCCCCCC(=O)OC[C@H](O)[C@H]1OC(=O)C(O)=C1O` was tested, and the mutagenic call [1] was “inactive; negative”, the mutagenic call (Test System: AMES SALMONELLA TYPHIMURIUM, Strain/Indicator: TA97, Metabolic Activation: RAT, LIVER, S-9, AROCLOR 1254, Method: PREINCUBATION) was “inactive; negative” and the mutagenic call (Test System: AMES SALMONELLA TYPHIMURIUM, Strain/Indicator: TA98, Metabolic Activation: NONE, Method: STANDARD PLATE) was “inactive; negative”. For the same compound, the mutagenic call (Test System: AMES SALMONELLA TYPHIMURIUM, Strain/Indicator: TA98, Metabolic Activation: RAT, LIVER, S-9, AROCLOR 1254, Method: STANDARD PLATE) was “inactive; negative”, the mutagenic call [3] was “inactive; negative” and the mutagenic call (Test System: AMES SALMONELLA TYPHIMURIUM, Strain/Indicator: TA100, Metabolic Activation: RAT, LIVER, S-9, AROCLOR 1254, Method: STANDARD PLATE) was “inactive; negative”. For the same compound, the mutagenic call (Test System: AMES SALMONELLA TYPHIMURIUM, Strain/Indicator: TA102, Metabolic Activation: NONE, Method: PREINCUBATION) was “inactive; negative”, the mutagenic call (Test System: AMES SALMONELLA TYPHIMURIUM, Strain/Indicator: TA102, Metabolic Activation: RAT, LIVER, S-9, AROCLOR 1254, Method: PREINCUBATION) was “inactive; negative” and the mutagenic call (Test System: AMES SALMONELLA TYPHIMURIUM, Strain/Indicator: TA1535, Metabolic Activation: NONE, Method: STANDARD PLATE) was “inactive; negative”. The mutagenic call (Test System: AMES SALMONELLA TYPHIMURIUM, Strain/Indicator: TA1535, Metabolic Activation: RAT, LIVER, S-9, AROCLOR 1254, Method: STANDARD PLATE) was “inactive; negative”, the mutagenic call [4] was “inactive; negative” and the mutagenic call (Test System: AMES SALMONELLA TYPHIMURIUM, Strain/Indicator: TA1537, Metabolic Activation: RAT, LIVER, S-9, AROCLOR 1254, Method: STANDARD PLATE) was “inactive; negative”. For the same compound, the mutagenic call [5] was “inactive; negative”, the mutagenic call (Test System: AMES SALMONELLA TYPHIMURIUM, Strain/Indicator: TA1538, Metabolic Activation: RAT, LIVER, S-9, AROCLOR 1254, Method: STANDARD PLATE) was “inactive; negative” and the mutagenic call (Test System: E. COLI, Strain/Indicator: WP2, Metabolic Activation: NONE, Method: STANDARD PLATE) was “inactive; negative”. The mutagenic call (Test System: E. COLI, Strain/Indicator: WP2, Metabolic Activation: RAT, LIVER, S-9, AROCLOR 1254, Method: STANDARD PLATE) was “inactive; negative”.
For `C#CCOCC[n+]1ccccc1/C=N/O`, the mutagenic call (Test System: AMES SALMONELLA TYPHIMURIUM, Strain/Indicator: TA97, Metabolic Activation: NONE, Method: STANDARD PLATE) was “inactive; negative”, the mutagenic call (Test System: AMES SALMONELLA TYPHIMURIUM, Strain/Indicator: TA97, Metabolic Activation: RAT, LIVER, S-9, Method: STANDARD PLATE) was “inactive; negative” and the mutagenic call [3] was “inactive; negative”. For the same compound, the mutagenic call (Test System: AMES SALMONELLA TYPHIMURIUM, Strain/Indicator: TA100, Metabolic Activation: RAT, LIVER, S-9, Method: STANDARD PLATE) was “inactive; negative”, the mutagenic call (Test System: AMES SALMONELLA TYPHIMURIUM, Strain/Indicator: TA104, Metabolic Activation: NONE, Method: STANDARD PLATE) was “inactive; negative” and the mutagenic call (Test System: AMES SALMONELLA TYPHIMURIUM, Strain/Indicator: TA104, Metabolic Activation: RAT, LIVER, S-9, Method: STANDARD PLATE) was “inactive; negative”. For the same compound, the mutagenic call [4] was “inactive; negative”, the mutagenic call (Test System: AMES SALMONELLA TYPHIMURIUM, Strain/Indicator: TA1537, Metabolic Activation: RAT, LIVER, S-9, Method: STANDARD PLATE) was “inactive; negative” and the mutagenic call [5] was “inactive; negative”. The mutagenic call (Test System: AMES SALMONELLA TYPHIMURIUM, Strain/Indicator: TA1538, Metabolic Activation: RAT, LIVER, S-9, Method: STANDARD PLATE) was “inactive; negative”.
In the case of `ClC[C@@]1(C(Cl)Cl)C2[C@@H](Cl)[C@H](Cl)C1(C(Cl)Cl)[C@@H](Cl)[C@@H]2Cl`, the mutagenic call [2] is reported as “inactive; negative”.
